Measured values reported in US10695337B2, “Piperidin-4-yl azetidine derivatives as JAK1 inhibitors” (Incyte Corporation, priority 2010, dated 2020).

Each compound was assayed against human JAK1 (a.a. 837-1142) (assay: In vitro JAK kinase assay (HTRF, phosphorylation of a biotinylated peptide), JAK1). Conditions: measured at 1 mM ATP; JAK2 IC50 / JAK1 IC50.
Assay type: biochemical
Procedure: Compounds herein were tested for inhibitory activity of JAK targets according to the following in vitro assay described in Park et al., Analytical Biochemistry 1999, 269, 94-104. The catalytic domains of human JAK1 (a.a. 837-1142), Jak2 (a.a. 828-1132) and Jak3 (a.a. 781-1124) with an N-terminal His tag were expressed using baculovirus in insect cells and purified. The catalytic activity of JAK1, JAK2 or JAK3 was assayed by measuring the phosphorylation of a biotinylated peptide. The phosphorylated peptide was detected by homogenous time resolved fluorescence (HTRF). […] Reactions were carried out at room temperature for 1 hr and then stopped with 20 μL 45 mM EDTA, 300 nM SA-APC, 6 nM Eu-Py20 in assay buffer (Perkin Elmer, Boston, Mass.). Binding to the Europium labeled antibody took place for 40 minutes and HTRF signal was measured on a Fusion plate reader (Perkin Elmer, Boston, Mass.).

SMILES	IC50 Ratio JAK2/JAK1
N#CCC1(n2cc(-c3ncnc4[nH]ccc34)cn2)CN(C2CCN(C(=O)c3ncco3)CC2)C1 [Example 16, {1-[1-(1,3-oxazol-2-ylcarbonyl)piperidin-4-yl]-3-[4-(7H-pyrrolo[2,3-d]pyrimidin-4-yl)-1H-pyrazol-1-yl]azetidin-3-yl}acetonitrile]	2.5
N#CCC1(n2cc(-c3ncnc4[nH]ccc34)cn2)CN(C2CCN(C(=O)c3cccc(Br)c3)CC2)C1 [Example 20, {1-[1-(3-bromobenzoyl)piperidin-4-yl]-3-[4-(7H-pyrrolo[2,3-d]pyrimidin-4-yl)-1H-pyrazol-1-yl]azetidin-3-yl}acetonitrile]	4.2
N#CCC1(n2cc(-c3ncnc4[nH]ccc34)cn2)CN(C2CCN(C(=O)c3cccc(OC(F)(F)F)c3)CC2)C1 [Example 21, (3-[4-(7H-pyrrolo[2,3-d]pyrimidin-4-yl)-1H-pyrazol-1-yl]-1-{1-[3-(trifluoromethoxy)benzoyl]piperidin-4-yl}azetidin-3-yl)acetonitrile]	3.2
N#CCC1(n2cc(-c3ncnc4[nH]ccc34)cn2)CN(C2CCN(C(=O)c3cccc(C(F)(F)F)c3)CC2)C1 [Example 22, (3-[4-(7H-pyrrolo[2,3-d]pyrimidin-4-yl)-1H-pyrazol-1-yl]-1-{1-[3-(trifluoromethyl)benzoyl]piperidin-4-yl}azetidin-3-yl)acetonitrile]	3.2
N#CCC1(n2cc(-c3ncnc4[nH]ccc34)cn2)CN(C2CCN(C(=O)c3cc(F)cc(C(F)(F)F)c3)CC2)C1 [Example 23, {1-{1-[3-fluoro-5-(trifluoromethyl)benzoyl]piperidin-4-yl}-3-[4-(7H-pyrrolo[2,3-d]pyrimidin-4-yl)-1H-pyrazol-1-yl]azetidin-3-yl}acetonitrile]	6.7
N#CCC1(n2cc(-c3ncnc4[nH]ccc34)cn2)CN(C2CCN(C(=O)c3cc(Cl)cc(Cl)c3)CC2)C1 [Example 24, {1-[1-(3,5-dichlorobenzoyl)piperidin-4-yl]-3-[4-(7H-pyrrolo[2,3-d]pyrimidin-4-yl)-1H-pyrazol-1-yl]azetidin-3-yl}acetonitrile]	6.6
N#CCC1(n2cc(-c3ncnc4[nH]ccc34)cn2)CN(C2CCN(C(=O)c3cccc(F)c3)CC2)C1 [Example 25, {1-[1-(3-fluorobenzoyl)piperidin-4-yl]-3-[4-(7H-pyrrolo[2,3-d]pyrimidin-4-yl)-1H-pyrazol-1-yl]azetidin-3-yl}acetonitrile]	5.8
COc1cc(C(=O)N2CCC(N3CC(CC#N)(n4cc(-c5ncnc6[nH]ccc56)cn4)C3)CC2)ccc1F [Example 26, {1-[1-(4-fluoro-3-methoxybenzoyl)piperidin-4-yl]-3-[4-(7H-pyrrolo[2,3-d]pyrimidin-4-yl)-1H-pyrazol-1-yl]azetidin-3-yl}acetonitrile]	3.3
COc1ccc(F)c(C(=O)N2CCC(N3CC(CC#N)(n4cc(-c5ncnc6[nH]ccc56)cn4)C3)CC2)c1 [Example 27, {1-[1-(2-fluoro-5-methoxybenzoyl)piperidin-4-yl]-3-[4-(7H-pyrrolo[2,3-d]pyrimidin-4-yl)-1H-pyrazol-1-yl]azetidin-3-yl}acetonitrile]	5.1
N#CCC1(n2cc(-c3ncnc4[nH]ccc34)cn2)CN(C2CCN(C(=O)c3cc(F)cc(Cl)c3)CC2)C1 [Example 28, {1-[1-(3-chloro-5-fluorobenzoyl)piperidin-4-yl]-3-[4-(7H-pyrrolo[2,3-d]pyrimidin-4-yl)-1H-pyrazol-1-yl]azetidin-3-yl}acetonitrile]	8.5
N#CCC1(n2cc(-c3ncnc4[nH]ccc34)cn2)CN(C2CCN(C(=O)c3cc(F)cc(Br)c3)CC2)C1 [Example 29, {1-[1-(3-bromo-5-fluorobenzoyl)piperidin-4-yl]-3-[4-(7H-pyrrolo[2,3-d]pyrimidin-4-yl)-1H-pyrazol-1-yl]azetidin-3-yl}acetonitrile]	7.2
N#CCC1(n2cc(-c3ncnc4[nH]ccc34)cn2)CN(C2CCN(C(=O)c3cc(Cl)sc3Cl)CC2)C1 [Example 30, {1-{1-[(2,5-dichloro-3-thienyl)carbonyl]piperidin-4-yl}-3-[4-(7H-pyrrolo[2,3-d]pyrimidin-4-yl)-1H-pyrazol-1-yl]azetidin-3-yl}acetonitrile]	2.8
COc1cccc(C(=O)N2CCC(N3CC(CC#N)(n4cc(-c5ncnc6[nH]ccc56)cn4)C3)CC2)c1 [Example 31, {1-[1-(3-methoxybenzoyl)piperidin-4-yl]-3-[4-(7H-pyrrolo[2,3-d]pyrimidin-4-yl)-1H-pyrazol-1-yl]azetidin-3-yl}acetonitrile]	1.9
COc1c(F)c(F)cc(C(=O)N2CCC(N3CC(CC#N)(n4cc(-c5ncnc6[nH]ccc56)cn4)C3)CC2)c1F [Example 32, {3-[4-(7H-pyrrolo[2,3-d]pyrimidin-4-yl)-1H-pyrazol-1-yl]-1-[1-(2,4,5-trifluoro-3-methoxybenzoyl)piperidin-4-yl]azetidin-3-yl}acetonitrile]	4.4
COc1cc(OC)cc(C(=O)N2CCC(N3CC(CC#N)(n4cc(-c5ncnc6[nH]ccc56)cn4)C3)CC2)c1 [Example 33, {1-[1-(3,5-dimethoxybenzoyl)piperidin-4-yl]-3-[4-(7H-pyrrolo[2,3-d]pyrimidin-4-yl)-1H-pyrazol-1-yl]azetidin-3-yl}acetonitrile]	0.5
N#CCC1(n2cc(-c3ncnc4[nH]ccc34)cn2)CN(C2CCN(C(=O)c3ccc(F)c(Cl)c3)CC2)C1 [Example 34, {1-[1-(3-chloro-4-fluorobenzoyl)piperidin-4-yl]-3-[4-(7H-pyrrolo[2,3-d]pyrimidin-4-yl)-1H-pyrazol-1-yl]azetidin-3-yl}acetonitrile]	6.0
N#CCC1(n2cc(-c3ncnc4[nH]ccc34)cn2)CN(C2CCN(C(=O)c3ccc(F)c(F)c3)CC2)C1 [Example 35, {1-[1-(3,4-difluorobenzoyl)piperidin-4-yl]-3-[4-(7H-pyrrolo[2,3-d]pyrimidin-4-yl)-1H-pyrazol-1-yl]azetidin-3-yl}acetonitrile]	6.9
COc1cc(F)cc(C(=O)N2CCC(N3CC(CC#N)(n4cc(-c5ncnc6[nH]ccc56)cn4)C3)CC2)c1 [Example 36, {1-[1-(3-fluoro-5-methoxybenzoyl)piperidin-4-yl]-3-[4-(7H-pyrrolo[2,3-d]pyrimidin-4-yl)-1H-pyrazol-1-yl]azetidin-3-yl}acetonitrile]	2.3
COc1cc(C(=O)N2CCC(N3CC(CC#N)(n4cc(-c5ncnc6[nH]ccc56)cn4)C3)CC2)cc(Cl)n1 [Example 37, {1-[1-(2-chloro-6-methoxyisonicotinoyl)piperidin-4-yl]-3-[4-(7H-pyrrolo[2,3-d]pyrimidin-4-yl)-1H-pyrazol-1-yl]azetidin-3-yl}acetonitrile]	2.1
COc1ccc(F)cc1C(=O)N1CCC(N2CC(CC#N)(n3cc(-c4ncnc5[nH]ccc45)cn3)C2)CC1 [Example 38, {1-[1-(5-fluoro-2-methoxybenzoyl)piperidin-4-yl]-3-[4-(7H-pyrrolo[2,3-d]pyrimidin-4-yl)-1H-pyrazol-1-yl]azetidin-3-yl}acetonitrile]	5.7
COc1cccc(F)c1C(=O)N1CCC(N2CC(CC#N)(n3cc(-c4ncnc5[nH]ccc45)cn3)C2)CC1 [Example 39, {1-[1-(2-fluoro-6-methoxybenzoyl)piperidin-4-yl]-3-[4-(7H-pyrrolo[2,3-d]pyrimidin-4-yl)-1H-pyrazol-1-yl]azetidin-3-yl}acetonitrile]	3.2
COc1cc(F)ccc1C(=O)N1CCC(N2CC(CC#N)(n3cc(-c4ncnc5[nH]ccc45)cn3)C2)CC1 [Example 40, {1-[1-(4-fluoro-2-methoxybenzoyl)piperidin-4-yl]-3-[4-(7H-pyrrolo[2,3-d]pyrimidin-4-yl)-1H-pyrazol-1-yl]azetidin-3-yl}acetonitrile]	4.8
N#CCC1(n2cc(-c3ncnc4[nH]ccc34)cn2)CN(C2CCN(C(=O)c3cccc(F)c3F)CC2)C1 [Example 41, {1-[1-(2,3-difluorobenzoyl)piperidin-4-yl]-3-[4-(7H-pyrrolo[2,3-d]pyrimidin-4-yl)-1H-pyrazol-1-yl]azetidin-3-yl}acetonitrile]	4.9
N#CCC1(n2cc(-c3ncnc4[nH]ccc34)cn2)CN(C2CCN(C(=O)c3ccc(F)cc3F)CC2)C1 [Example 42, {1-[1-(2,4-difluorobenzoyl)piperidin-4-yl]-3-[4-(7H-pyrrolo[2,3-d]pyrimidin-4-yl)-1H-pyrazol-1-yl]azetidin-3-yl}acetonitrile]	6.7
N#CCC1(n2cc(-c3ncnc4[nH]ccc34)cn2)CN(C2CCN(C(=O)c3cc(F)ccc3F)CC2)C1 [Example 43, {1-[1-(2,5-difluorobenzoyl)piperidin-4-yl]-3-[4-(7H-pyrrolo[2,3-d]pyrimidin-4-yl)-1H-pyrazol-1-yl]azetidin-3-yl}acetonitrile]	5.0
N#CCC1(n2cc(-c3ncnc4[nH]ccc34)cn2)CN(C2CCN(C(=O)c3c(F)cccc3F)CC2)C1 [Example 44, {1-[1-(2,6-difluorobenzoyl)piperidin-4-yl]-3-[4-(7H-pyrrolo[2,3-d]pyrimidin-4-yl)-1H-pyrazol-1-yl]azetidin-3-yl}acetonitrile]	2.9
